Results reported in ChEMBL document CHEMBL5325403, “Benzenesulfonyl thiazoloimines as unique multitargeting antibacterial agents towards Enterococcus faecalis” (Eur J Med Chem, 2023).
Values after ≈ are worked out from the molar mass of the structure shown.

test system: Staphylococcus aureus; experiment: Antibacterial activity against methicillin-resistant Staphylococcus aureus N315 assessed as inhibition of bacterial growth by continuous dilution method; format: functional

| SMILES | MIC [µg/mL] |
| --- | --- |
| CC(=O)Nc1ccc(S(=O)(=O)C/C(=N/NC(=O)c2ccccc2O)c2nccs2)cc1 | 64 (≈ 140 µM) |
| CCCCCCCCO/N=C(/CS(=O)(=O)c1ccc(NC(C)=O)cc1)c1nccs1 | 64 (≈ 142 µM) |
| COc1ccc(/C=C(/C(=O)c2nccs2)S(=O)(=O)c2ccc(NC(C)=O)cc2)cc1 | 4 (≈ 9.04 µM) |
| CC(=O)Nc1ccc(S(=O)(=O)/C(=C\c2ccc(C#N)cc2)C(=O)c2nccs2)cc1 | 8 (≈ 18.3 µM) |
| CC(=O)Nc1ccc(S(=O)(=O)C/C(=N/NC(=O)c2cccnc2)c2nccs2)cc1 | 2 (≈ 4.51 µM) |
| C=CCO/N=C(/CS(=O)(=O)c1ccc(N)cc1)c1nccs1 | 128 (≈ 379 µM) |

test system: Acinetobacter baumannii; experiment: Antibacterial activity against Acinetobacter baumannii assessed as inhibition of bacterial growth by continuous dilution method; format: functional

| SMILES | MIC [µg/mL] |
| --- | --- |
| CC(=O)Nc1ccc(S(=O)(=O)C/C(=N/NC(=O)c2ccccc2O)c2nccs2)cc1 | 128 (≈ 279 µM) |
| CCCCCCCCO/N=C(/CS(=O)(=O)c1ccc(NC(C)=O)cc1)c1nccs1 | 128 (≈ 283 µM) |
| COc1ccc(/C=C(/C(=O)c2nccs2)S(=O)(=O)c2ccc(NC(C)=O)cc2)cc1 | 128 (≈ 289 µM) |
| CC(=O)Nc1ccc(S(=O)(=O)/C(=C\c2ccc(C#N)cc2)C(=O)c2nccs2)cc1 | 128 (≈ 293 µM) |
| CC(=O)Nc1ccc(S(=O)(=O)C/C(=N/NC(=O)c2cccnc2)c2nccs2)cc1 | 32 (≈ 72.2 µM) |
| C=CCO/N=C(/CS(=O)(=O)c1ccc(N)cc1)c1nccs1 | 64 (≈ 190 µM) |

test system: Staphylococcus aureus; experiment: Antibacterial activity against Staphylococcus aureus ATCC 29213 assessed as inhibition of bacterial growth by continuous dilution method; format: functional

| SMILES | MIC [µg/mL] |
| --- | --- |
| CC(=O)Nc1ccc(S(=O)(=O)C/C(=N/NC(=O)c2ccccc2O)c2nccs2)cc1 | 256 (≈ 558 µM) |
| CCCCCCCCO/N=C(/CS(=O)(=O)c1ccc(NC(C)=O)cc1)c1nccs1 | 64 (≈ 142 µM) |
| COc1ccc(/C=C(/C(=O)c2nccs2)S(=O)(=O)c2ccc(NC(C)=O)cc2)cc1 | 16 (≈ 36.2 µM) |
| CC(=O)Nc1ccc(S(=O)(=O)/C(=C\c2ccc(C#N)cc2)C(=O)c2nccs2)cc1 | 8 (≈ 18.3 µM) |
| CC(=O)Nc1ccc(S(=O)(=O)C/C(=N/NC(=O)c2cccnc2)c2nccs2)cc1 | 128 (≈ 289 µM) |
| C=CCO/N=C(/CS(=O)(=O)c1ccc(N)cc1)c1nccs1 | 32 (≈ 94.8 µM) |

test system: Escherichia coli; experiment: Antibacterial activity against Escherichia coli assessed as inhibition of bacterial growth by continuous dilution method; format: functional

| SMILES | MIC [µg/mL] |
| --- | --- |
| CC(=O)Nc1ccc(S(=O)(=O)C/C(=N/NC(=O)c2ccccc2O)c2nccs2)cc1 | 128 (≈ 279 µM) |
| CCCCCCCCO/N=C(/CS(=O)(=O)c1ccc(NC(C)=O)cc1)c1nccs1 | 32 (≈ 70.9 µM) |
| COc1ccc(/C=C(/C(=O)c2nccs2)S(=O)(=O)c2ccc(NC(C)=O)cc2)cc1 | 32 (≈ 72.3 µM) |
| CC(=O)Nc1ccc(S(=O)(=O)/C(=C\c2ccc(C#N)cc2)C(=O)c2nccs2)cc1 | 32 (≈ 73.1 µM) |
| CC(=O)Nc1ccc(S(=O)(=O)C/C(=N/NC(=O)c2cccnc2)c2nccs2)cc1 | 32 (≈ 72.2 µM) |
| C=CCO/N=C(/CS(=O)(=O)c1ccc(N)cc1)c1nccs1 | 32 (≈ 94.8 µM) |

test system: Pseudomonas aeruginosa; experiment: Antibacterial activity against Pseudomonas aeruginosa assessed as inhibition of bacterial growth by continuous dilution method; format: functional

| SMILES | MIC [µg/mL] |
| --- | --- |
| CC(=O)Nc1ccc(S(=O)(=O)C/C(=N/NC(=O)c2ccccc2O)c2nccs2)cc1 | 256 (≈ 558 µM) |
| CCCCCCCCO/N=C(/CS(=O)(=O)c1ccc(NC(C)=O)cc1)c1nccs1 | 64 (≈ 142 µM) |
| COc1ccc(/C=C(/C(=O)c2nccs2)S(=O)(=O)c2ccc(NC(C)=O)cc2)cc1 | 128 (≈ 289 µM) |
| CC(=O)Nc1ccc(S(=O)(=O)/C(=C\c2ccc(C#N)cc2)C(=O)c2nccs2)cc1 | 128 (≈ 293 µM) |
| CC(=O)Nc1ccc(S(=O)(=O)C/C(=N/NC(=O)c2cccnc2)c2nccs2)cc1 | 128 (≈ 289 µM) |
| C=CCO/N=C(/CS(=O)(=O)c1ccc(N)cc1)c1nccs1 | 64 (≈ 190 µM) |

test system: Pseudomonas aeruginosa; experiment: Antibacterial activity against Pseudomonas aeruginosa ATCC 27853 assessed as inhibition of bacterial growth by continuous dilution method; format: functional

| SMILES | MIC [µg/mL] |
| --- | --- |
| CC(=O)Nc1ccc(S(=O)(=O)C/C(=N/NC(=O)c2ccccc2O)c2nccs2)cc1 | 16 (≈ 34.9 µM) |
| CCCCCCCCO/N=C(/CS(=O)(=O)c1ccc(NC(C)=O)cc1)c1nccs1 | 64 (≈ 142 µM) |
| COc1ccc(/C=C(/C(=O)c2nccs2)S(=O)(=O)c2ccc(NC(C)=O)cc2)cc1 | 128 (≈ 289 µM) |
| CC(=O)Nc1ccc(S(=O)(=O)/C(=C\c2ccc(C#N)cc2)C(=O)c2nccs2)cc1 | 64 (≈ 146 µM) |
| CC(=O)Nc1ccc(S(=O)(=O)C/C(=N/NC(=O)c2cccnc2)c2nccs2)cc1 | 16 (≈ 36.1 µM) |
| C=CCO/N=C(/CS(=O)(=O)c1ccc(N)cc1)c1nccs1 | 16 (≈ 47.4 µM) |

test system: Klebsiella pneumoniae; experiment: Antibacterial activity against Klebsiella pneumoniae assessed as inhibition of bacterial growth by continuous dilution method; format: functional

| SMILES | MIC [µg/mL] |
| --- | --- |
| CC(=O)Nc1ccc(S(=O)(=O)C/C(=N/NC(=O)c2ccccc2O)c2nccs2)cc1 | 128 (≈ 279 µM) |
| CCCCCCCCO/N=C(/CS(=O)(=O)c1ccc(NC(C)=O)cc1)c1nccs1 | 64 (≈ 142 µM) |
| COc1ccc(/C=C(/C(=O)c2nccs2)S(=O)(=O)c2ccc(NC(C)=O)cc2)cc1 | 32 (≈ 72.3 µM) |
| CC(=O)Nc1ccc(S(=O)(=O)/C(=C\c2ccc(C#N)cc2)C(=O)c2nccs2)cc1 | 128 (≈ 293 µM) |
| CC(=O)Nc1ccc(S(=O)(=O)C/C(=N/NC(=O)c2cccnc2)c2nccs2)cc1 | 16 (≈ 36.1 µM) |
| C=CCO/N=C(/CS(=O)(=O)c1ccc(N)cc1)c1nccs1 | 32 (≈ 94.8 µM) |

test system: Enterococcus faecalis; experiment: Antibacterial activity against Enterococcus faecalis assessed as inhibition of bacterial growth by continuous dilution method; format: functional

| SMILES | MIC [µg/mL] |
| --- | --- |
| CC(=O)Nc1ccc(S(=O)(=O)C/C(=N/NC(=O)c2ccccc2O)c2nccs2)cc1 | 128 (≈ 279 µM) |
| CCCCCCCCO/N=C(/CS(=O)(=O)c1ccc(NC(C)=O)cc1)c1nccs1 | 64 (≈ 142 µM) |
| COc1ccc(/C=C(/C(=O)c2nccs2)S(=O)(=O)c2ccc(NC(C)=O)cc2)cc1 | 4 (≈ 9.04 µM) |
| CC(=O)Nc1ccc(S(=O)(=O)/C(=C\c2ccc(C#N)cc2)C(=O)c2nccs2)cc1 | 8 (≈ 18.3 µM) |
| CC(=O)Nc1ccc(S(=O)(=O)C/C(=N/NC(=O)c2cccnc2)c2nccs2)cc1 | 128 (≈ 289 µM) |
| C=CCO/N=C(/CS(=O)(=O)c1ccc(N)cc1)c1nccs1 | 16 (≈ 47.4 µM) |

test system: Staphylococcus aureus; experiment: Antibacterial activity against Staphylococcus aureus assessed as inhibition of bacterial growth by continuous dilution method; format: functional

| SMILES | MIC [µg/mL] |
| --- | --- |
| CC(=O)Nc1ccc(S(=O)(=O)C/C(=N/NC(=O)c2ccccc2O)c2nccs2)cc1 | 128 (≈ 279 µM) |
| CCCCCCCCO/N=C(/CS(=O)(=O)c1ccc(NC(C)=O)cc1)c1nccs1 | 128 (≈ 283 µM) |
| COc1ccc(/C=C(/C(=O)c2nccs2)S(=O)(=O)c2ccc(NC(C)=O)cc2)cc1 | 32 (≈ 72.3 µM) |
| CC(=O)Nc1ccc(S(=O)(=O)/C(=C\c2ccc(C#N)cc2)C(=O)c2nccs2)cc1 | 8 (≈ 18.3 µM) |
| CC(=O)Nc1ccc(S(=O)(=O)C/C(=N/NC(=O)c2cccnc2)c2nccs2)cc1 | 8 (≈ 18 µM) |
| C=CCO/N=C(/CS(=O)(=O)c1ccc(N)cc1)c1nccs1 | 64 (≈ 190 µM) |

test system: Staphylococcus aureus; experiment: Antibacterial activity against Staphylococcus aureus ATCC 25923 assessed as inhibition of bacterial growth by continuous dilution method; format: functional

| SMILES | MIC [µg/mL] |
| --- | --- |
| CC(=O)Nc1ccc(S(=O)(=O)C/C(=N/NC(=O)c2ccccc2O)c2nccs2)cc1 | 64 (≈ 140 µM) |
| CCCCCCCCO/N=C(/CS(=O)(=O)c1ccc(NC(C)=O)cc1)c1nccs1 | 64 (≈ 142 µM) |
| COc1ccc(/C=C(/C(=O)c2nccs2)S(=O)(=O)c2ccc(NC(C)=O)cc2)cc1 | 32 (≈ 72.3 µM) |
| CC(=O)Nc1ccc(S(=O)(=O)/C(=C\c2ccc(C#N)cc2)C(=O)c2nccs2)cc1 | 32 (≈ 73.1 µM) |
| CC(=O)Nc1ccc(S(=O)(=O)C/C(=N/NC(=O)c2cccnc2)c2nccs2)cc1 | 2 (≈ 4.51 µM) |
| C=CCO/N=C(/CS(=O)(=O)c1ccc(N)cc1)c1nccs1 | 32 (≈ 94.8 µM) |

test system: Escherichia coli; experiment: Antibacterial activity against Escherichia coli ATCC 25922 assessed as inhibition of bacterial growth by continuous dilution method; format: functional

| SMILES | MIC [µg/mL] |
| --- | --- |
| CC(=O)Nc1ccc(S(=O)(=O)C/C(=N/NC(=O)c2ccccc2O)c2nccs2)cc1 | 64 (≈ 140 µM) |
| CCCCCCCCO/N=C(/CS(=O)(=O)c1ccc(NC(C)=O)cc1)c1nccs1 | 16 (≈ 35.4 µM) |
| COc1ccc(/C=C(/C(=O)c2nccs2)S(=O)(=O)c2ccc(NC(C)=O)cc2)cc1 | 64 (≈ 145 µM) |
| CC(=O)Nc1ccc(S(=O)(=O)/C(=C\c2ccc(C#N)cc2)C(=O)c2nccs2)cc1 | 16 (≈ 36.6 µM) |
| CC(=O)Nc1ccc(S(=O)(=O)C/C(=N/NC(=O)c2cccnc2)c2nccs2)cc1 | 128 (≈ 289 µM) |
| C=CCO/N=C(/CS(=O)(=O)c1ccc(N)cc1)c1nccs1 | 16 (≈ 47.4 µM) |
